In US20240174727A1, “LONG-ACTING NATRIURETIC PEPTIDES AND USES THEREOF” (Eli Lilly and Company, priority 2022, published 2024):
Like-named read-outs stand apart in the source and are kept apart here. Numbered stars: 1 amine (or outer) side, 2 acyl side, 3 side chain; on linkers, the order of the positions; unused ones are H or OH. Bridge positions count the residues as written; N and C are the ends. Square brackets hold non-standard residues; d marks the D form. Peptide text beside a SMILES is read from it. * marks the point of attachment. PEG24 = NCCOCCOCCOCCOCCOCCOCCOCCOCCOCCOCCOCCOCCOCCOCCOCCOCCOCCOCCOCCOCCOCCOCCOCCOCCC(=O)O; C20 diacid = O=C(O)CCCCCCCCCCCCCCCCCCC(=O)*; γGlu = O=C(O)[C@H](CCC(=O)[*:2])N[*:1]; 4Pal = N[C@@H](Cc1ccncc1)C(=O)O; CH2 = C([*:1])[*:2]

Target: T1, rat NPRA (Rattus norvegicus, UniProt P18910)
T1 construct: Full-Length cDNA Cloning and Generation of Cell Lines Overexpressing Natriuretic Peptide Receptors (NPRs); expressed in transfected cells; host or cells: Jump-in T-Rex HEK293 cells, pJTI R4 CMV-TO MCS pA vector, tetracycline induction
T1 sequence (P18910 29-1057): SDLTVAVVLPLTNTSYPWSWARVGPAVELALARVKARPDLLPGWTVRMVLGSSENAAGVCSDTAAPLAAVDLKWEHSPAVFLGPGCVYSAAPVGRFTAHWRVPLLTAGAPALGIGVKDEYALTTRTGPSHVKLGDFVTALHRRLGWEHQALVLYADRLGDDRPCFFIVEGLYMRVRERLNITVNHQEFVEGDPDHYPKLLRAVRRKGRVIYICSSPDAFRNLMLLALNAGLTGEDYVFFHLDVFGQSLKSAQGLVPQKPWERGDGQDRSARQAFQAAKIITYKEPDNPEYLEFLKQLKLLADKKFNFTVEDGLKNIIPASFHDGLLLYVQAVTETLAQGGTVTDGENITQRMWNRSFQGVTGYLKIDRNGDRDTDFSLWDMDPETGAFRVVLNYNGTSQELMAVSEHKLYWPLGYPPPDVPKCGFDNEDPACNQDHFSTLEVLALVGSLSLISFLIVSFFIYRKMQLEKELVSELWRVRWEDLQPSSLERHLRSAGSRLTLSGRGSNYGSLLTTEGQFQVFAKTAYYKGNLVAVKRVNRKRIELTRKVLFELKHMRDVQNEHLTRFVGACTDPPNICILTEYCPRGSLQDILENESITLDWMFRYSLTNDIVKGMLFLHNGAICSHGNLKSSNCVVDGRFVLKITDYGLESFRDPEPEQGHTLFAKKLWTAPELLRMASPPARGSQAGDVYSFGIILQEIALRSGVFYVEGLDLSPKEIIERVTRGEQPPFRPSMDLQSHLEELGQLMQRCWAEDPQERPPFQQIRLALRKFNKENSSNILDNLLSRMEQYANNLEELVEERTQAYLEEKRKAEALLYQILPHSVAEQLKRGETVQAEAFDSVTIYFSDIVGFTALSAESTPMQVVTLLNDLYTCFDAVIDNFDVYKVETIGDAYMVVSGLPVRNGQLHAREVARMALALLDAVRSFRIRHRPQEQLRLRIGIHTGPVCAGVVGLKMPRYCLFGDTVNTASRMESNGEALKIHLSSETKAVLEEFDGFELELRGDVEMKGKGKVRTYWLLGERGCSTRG
Assay: Rat NPRA cGMP activity assay (HTRF) in HEK293 cells overexpressing NPRA
Format: cell-based
Procedure: All sequences were verified by full-length sequencing performed by ACGT DNA Sequencing Services (Wheeling, IL). The target cDNA was cloned into pJTI R4 CMV-TO MCS pA vector and then co-transfected with pJT1R4 Int vector into Jump-in™ T-Rex™ HEK293 cells for mammalian inducible expression using Jump-in™ T-Rex™ HEK293 kit and Lipofectamine LTX and Plus Reagent following manufacturer's protocols, as briefly described below.
Jump-in™ T-Rex™ HEK293 cells were plated in a BioCOAT® poly-D-lysine coated 6-well plate (Becton Dickinson, cat no. 354413) at 1 million cells/well in 2 mL culture medium and incubated for 18 h at 37° C. and 5% CO2 to 50-70% confluence. A cDNA mix was made in a 50 mL tube by adding 1.5 μg target cDNA, 1.5 μg pJT1R4 Int vector, 3 μL Plus Reagent, and 300 μL Opti-MEM I sequentially into the tube. A reagent mix was made in a separate 50 mL tube by adding 7.5 μL Lipofectamine LTX into 300 μL Opti-MEM I. The mixtures were incubated for 5 min at room temperature. The cDNA mix was then transferred into the reagent mix, mixed well, and incubated for additional 30 min at room temperature. A 500 μL of cDNA/Lipofectamine complex was then transferred to the wells of the cell plate in which the culture medium was changed to 2 mL of transfection medium containing DMEM with 4.5 g/L D-glucose supplemented with 10% FBS-HI and 20 mM HEPES. Transfected cells were cultured for 48 h in an incubator at 37° C. and 5% CO2. A subclone or pool from each overexpressing cell line was maintained in culture medium with the addition of 2 mg/mL G418 sulfate for the clone selection based on its built-in resistance to G418 sulfate for at least 3 weeks with medium changed every 2-3 days.
NPRs were overexpressed in T-Rex™ HEK293 cells following the induction with 300 ng/mL tetracycline in culture medium for 48 h. Induced cell lines in an exponential growth phase were treated with 0.05% trypsin-EDTA for a few seconds at room temperature, harvested in cell medium containing FBS to neutralize the trypsin, counted, and cryopreserved at the density of 2 million cells/mL in cell preservation solution containing FBS-HI with 5% DMSO. Cryopreserved cells were stored at −80° C. for a few days prior to transferring to a liquid nitrogen tank. Induced cell lines were then used for suspension assays to measure the activity of polypeptides to stimulate cGMP production in cGMP assays or for the preparation of cell membranes to measure the binding activity of polypeptides in competitive radioligand binding assays, as described below.
Test polypeptides were added starting at 10 μM concentration and at 10-fold decreasing concentrations to obtain 8-point concentration-response curves (i.e., 10 μM to 1 pM). The quantity of cGMP generated was detected using HTRF® technology and normalized to maximum amount produced by 100 nM amidated rat ANP and the minimum amount produced by assay buffer. Detailed steps are outlined below.
Stock solutions of test polypeptides (2 mM) dissolved in DMSO were first diluted 100-fold in assay buffer containing HBSS with Ca^2+ and Mg^2+, 5 mM HEPES, 0.5 mM IBMX, and 0.1% BSA or 0.1% casein (pH 7.4). The polypeptides were further serially diluted in 1:10 dilution steps in assay buffer containing 0.1% BSA or 0.1% casein to generate 8-point 2× working stock solutions ranging from 20 μM to […].
A 10 μL cell suspension containing 4000 cells was plated in Costar® half-area white opaque 96-well plates (Corning, cat no. 3693). Then 10 μL of assay buffer (basal activity), 200 nM of amidated rat ANP (maximum activity) or 2× working stock solutions of test polypeptides were transferred into the plate. Final concentration of DMSO in each well was 0.5%. The plate was shaken for 15 sec and then incubated for 40 min at room temperature.
The cGMP generated was measured using cGMP kit following the manufacturer's directions, as described below.

[1] = assay buffer with 0.1% casein, read-out: cGMP Assay (EC50, pM) w/Casein rNPRA

Compound | EC50 [1] | further results
CC[C@H](C)[C@@H]1NC(=O)[C@H](CCCNC(=N)N)NC(=O)[C@H](CC(=O)O)NC(=O)[C@H]([C@@H](C)CC)NC(=O)[C@H](CCCNC(=N)N)NC(=O)CNC(=O)CNC(=O)[C@H](Cc2ccccc2)NC(=O)[C@@H](NC(=O)[C@H](CO)NC(=O)[C@H](CO)NC(=O)[C@H](CCCNC(=N)N)NC(=O)[C@H](CCCNC(=N)N)NC(=O)[C@H](Cc2ccncc2)NC(=O)[C@H](CO)NC(=O)CNC(=O)[C@H](CCCCN)NC(=O)[C@H](CCC(=O)O)NC(=O)[C@H](CCCCN)NC(=O)[C@H](CCC(=O)O)NC(=O)[C@H](CCCCN)NC(=O)[C@H](CCC(=O)O)NC(=O)CC[C@H](NC(=O)CCCCCCCCCCCCCCCCCCC(=O)O)C(=O)O)CSSC[C@@H](C(=O)N2CCC[C@H]2C(=O)N[C@@H](CO)C(=O)N[C@@H](Cc2ccccc2)C(=O)N[C@@H](CCCNC(=N)N)C(=O)N[C@@H](Cc2c[nH]cn2)C(N)=O)NC(=O)CNC(=O)[C@H](CC(C)C)NC(=O)CNC(=O)[C@H](CO)NC(=O)[C@H](CCC(N)=O)NC(=O)[C@H](C)NC(=O)CNC1=O [Example 22] ({C20 diacid-γGlu}-EKEKEKGS[4Pal]RRSSCFGGRIDRIGAQSGLGCPSFRH-NH2; disulfide 14-30) |  | EC50 (assay buffer with 0.1% BSA, read-out: cGMP Assay (EC50, pM) w/BSA rNPRA): 192000 pM
CC[C@H](C)[C@@H]1NC(=O)[C@H](CCCNC(=N)N)NC(=O)[C@H](CC(=O)O)NC(=O)[C@H]([C@@H](C)CC)NC(=O)[C@H](CCCNC(=N)N)NC(=O)[C@H](CCCCN)NC(=O)CNC(=O)[C@H](Cc2ccccc2)NC(=O)[C@@H](NC(=O)[C@H](CO)NC(=O)[C@H](CO)NC(=O)[C@H](CCCNC(=N)N)NC(=O)CCNC(=O)[C@H](CCCCN)NC(=O)[C@H](CCC(=O)O)NC(=O)COCCOCCNC(=O)COCCOCCNC(=O)COCCOCCNC(=O)COCCOCCNC(=O)COCCOCCNC(=O)COCCOCCNC(=O)COCCOCCNC(=O)COCCOCCNC(=O)CNC(=O)[C@H](CCCCN)NC(=O)[C@H](CCC(=O)O)NC(=O)[C@H](CCCCN)NC(=O)[C@H](CCC(=O)O)NC(=O)[C@H](CCCCN)NC(=O)[C@H](CCC(=O)O)NC(=O)CC[C@H](NC(=O)CCCCCCCCCCCCCCCCCCC(=O)O)C(=O)O)CSCSC[C@@H](C(=O)N2CCC[C@H]2C(=O)N[C@@H](CO)C(=O)N[C@@H](Cc2ccccc2)C(=O)N[C@@H](CCCNC(=N)N)C(=O)N[C@@H](Cc2c[nH]cn2)C(=O)NCC(=O)N[C@@H](CO)C(=O)N2CCC[C@H]2C(=O)N[C@@H](CO)C(=O)N[C@@H](CO)C(=O)NCC(=O)N[C@@H](C)C(=O)N2CCC[C@H]2C(=O)N2CCC[C@H]2C(=O)N2CCC[C@H]2C(=O)N[C@@H](CO)C(N)=O)NC(=O)CNC(=O)[C@H](CC(C)C)NC(=O)CNC(=O)[C@H](CO)NC(=O)[C@H](CCC(N)=O)NC(=O)[C@H](Cc2c[nH]cn2)NC(=O)CNC1=O [Example 120] | 25400 pM | 
CC[C@H](C)[C@@H]1NC(=O)[C@H](CCCNC(=N)N)NC(=O)[C@H](CC(=O)O)NC(=O)[C@H]([C@@H](C)CC)NC(=O)[C@H](CCCNC(=N)N)NC(=O)[C@H](CCCCN)NC(=O)CNC(=O)[C@H](Cc2ccccc2)NC(=O)[C@@H](NC(=O)[C@H](CO)NC(=O)[C@H](CO)NC(=O)[C@H](CCCNC(=N)N)NC(=O)[C@@H]2CCCN2C(=O)[C@H](CCCCN)NC(=O)[C@H](CCC(=O)O)NC(=O)COCCOCCNC(=O)COCCOCCNC(=O)COCCOCCNC(=O)COCCOCCNC(=O)COCCOCCNC(=O)COCCOCCNC(=O)CNC(=O)[C@H](CCCCN)NC(=O)[C@H](CCC(=O)O)NC(=O)[C@H](CCCCN)NC(=O)[C@H](CCC(=O)O)NC(=O)[C@H](CCCCN)NC(=O)[C@H](CCC(=O)O)NC(=O)CC[C@H](NC(=O)CCCCCCCCCCCCCCCCCCC(=O)O)C(=O)O)CSCSC[C@@H](C(=O)N2CCC[C@H]2C(=O)N[C@@H](CO)C(=O)N[C@@H](Cc2ccccc2)C(=O)N[C@@H](CCCNC(=N)N)C(=O)N[C@@H](Cc2c[nH]cn2)C(=O)NCC(=O)N[C@@H](CO)C(=O)N2CCC[C@H]2C(=O)N[C@@H](CO)C(=O)N[C@@H](CO)C(=O)NCC(=O)N[C@@H](C)C(=O)N2CCC[C@H]2C(=O)N2CCC[C@H]2C(=O)N2CCC[C@H]2C(=O)N[C@@H](CO)C(N)=O)NC(=O)CNC(=O)[C@H](CC(C)C)NC(=O)CNC(=O)[C@H](CO)NC(=O)[C@H](Cc2ccc(O)cc2)NC(=O)[C@H](Cc2c[nH]cn2)NC(=O)CNC1=O [Example 122, HOOC-(CH2)18-CO-(γGlu)-EKEKEKG-(AEEA)6-EKPRSS[CFGKRIDRIGHYSGLGCJPSFRHGSPSSGAPPPS-NH2] |  | EC50 (cGMP Assay (EC50, pM) w/Casein rNPRA, assay buffer with 0.1% casein): 3770 pM
{C20 diacid-γGlu}-EKEKEKG[PEG24]EKPRSSCFGKGIDRIGHQSGLGCPSFRHSGSPSSGAPPPSG-NH2 (linker 15-31 via CH2) [Example 133, HOOC-(CH2)18-CO-(γGlu)-EKEKEKG-PEG24-EKPRSS[CFGKGIDRIGHQSGLGCJPSFRHSGSPSSGAPPPSG-NH2] | 581000 pM | 
